Test results reported in patent publication US5646130A, “Low molecular weight sulfated polysaccharides and uses thereof” (priority 1995, dated 1997).

Key:
hyperlipoproteinemia = assay: Anti-hyperlipoproteinic activity in rats; assay type: in vivo, rat; conditions: 300 mg/Kg PO
From the text: The pharmacological activity increased with oral dose levels.

white blood cells = assay: Cyclophosphamide immunosuppression in albino mice; assay type: in vivo; conditions: cyclophosphamide alone
From the text: These compounds provided herein can also be used for enhancing cellular and humoral immunological activities. In particular, these compositions and compounds prevent or reduce the immunosuppressive side-effects associated with the administration of alkylating agents, such as cyclophosphamide, for treatment of certain cancers.

[1] = test system: rabbit blood clot formation; assay: Ex vivo anti-thrombotic activity in treated rabbits (clot wet weight); conditions: 83 u/kg
Procedure: Blood [1 ml] was removed from the carotid artery of treated animals and quickly injected into clot formation tubes. […] The wet weight of the clot was determined. The clot was dried at 60° C. overnight, and dry weight was determined.

[2] = test system: preformed rabbit blood clot; assay: Ex vivo thrombolysis of preformed rabbit blood clot; conditions: 335 U/ml
Procedure: A rabbit arterial blood clot [1 ml] was preformed at 37° C., for 60 min. The clot was incubated in vitro with the drug (0.1 ml, 6 groups) in the clot forming tube at 37° C. for 60 min. At the end of the incubation, the clot was removed and its wet weight determined. It was then dried overnight and its dry weight was determined.

thrombus formation = assay: Comparison of (M9 G)2 and heparin, thrombosis assay, Experiment 2; assay type: in vivo, rabbit; conditions: 83 u/kg
Procedure: Rabbits were anesthetized and surgically instrumented using an established method in which the right carotid artery was connected via a polyethylene tube to the left external […]. A 15 cm [#4] surgical wire was left in the polyethylene tubing for thrombus formation. The animals were then treated with saline or drug intravenously for 10 minutes and the arterial-venous shunt was connected to allow blood flow for 15 minutes. The wire was then retrieved and weighed to determine the thrombus weight.

[3] = test system: fibrinolysis (euglobulin lysis); assay: Euglobulin lysis time in rabbits; assay type: in vivo, rabbit; conditions: iv 333 U/Kg
From the text: ELT:englobulin (euglobulin) lysis time; a measurement of in vivo plasmin

[4] = test system: fibrin degradation protein (FDP); assay: Fibrinolysis activity in rabbits (FDP, fibrinogen); assay type: in vivo, rabbit; conditions: iv 333 U/Kg

CCOC(=O)C(C)(C)Oc1ccc(Cl)cc1 [clofibrate]
MDA (hyperlipoproteinemia): 1.2 mmol/L
PTC (percent inhibition of total cholesterol) (hyperlipoproteinemia): 53%
TC (hyperlipoproteinemia): 4.0 mmol/L
TG (hyperlipoproteinemia): 0.4 mmol/L

O=P1(N(CCCl)CCCl)NCCCO1 (centres unmarked) [cyclophosphamide]
White blood cell counts (white blood cells): close to zero

heparin
Clot wet weight, 15 min after [1]: 2.0 ± 4.5 mg
Clot wet weight, 60 min after [1]: 51 ± 23 mg
% Dissolution [2]: 4.7 ± 8.5%
Clot dry weight [2]: 14.1 ± 3.2
Clot wet weight [2]: 56 ± 9
Wet weight inhibition, 15 min (thrombus formation): 97
Wet weight inhibition, 60 min (thrombus formation): 20
Wet weight inhibition, 120 min (thrombus formation): 0
ELT time, 15 min post [3]: 124 min
ELT time, 60 min post [3]: 197 min
FDP, 15 min post [4]: 18 ± 9 mg/L
FDP, 60 min post [4]: 6 ± 6. mg/L
